The target in test [1] is T1, Adrenergic β2 (Homo sapiens, UniProt P07550).
T1 construct: Adherent H292 cells are removed from tissue culture flasks by treatment with Accutase™ cell detachment solution; endogenous in cells; host or cells: H292 cells
Briefly: Adrenergic β2 mediated cAMP production in H292 cells, single concentration 1 μM. The format is cell-based. The settings on record: NCI-H292, 1 μM compound, cAMP as percentage of the maximum response generated by 1E-07M formoterol, read-out: β2 % effect @1 uM. Put shortly: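 H292 cells pretreated with rolipram (300 μM final) 10 min, then compound at 1 μM final, 1% DMSO, 60 min at room temperature in HBSS/10 mM HEPES pH 7.4/5 mM glucose. Lysate cAMP quantified by AlphaScreen against a standard curve, as % of maximal response to 1E-07M formoterol.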

Test [2] has as its target T2, human muscarinic acetylcholine M3 receptor (Homo sapiens, UniProt P20309).
T2 construct: expressed in transfected cells; host or cells: CHO-K1 (Chinese Hamster Ovary) cell membranes
In words: Muscarinic 3 receptor binding assay ([3H]NMS competition, SPA), single concentration 1 μM. The settings on record: 1 μM compound; % inhibition specific [3H]-NMS binding. Put shortly:
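CHO-K1 membranes expressing human M3 on SPA beads, competition with 0.1 nM [3H]NMS (quarter Kd) in 20 mM HEPES pH 7.4, 5 mM MgCl2, 0.1% BSA, 1% DMSO; compound at 1 μM. 16 h at room temperature. Value is % inhibition of specific binding, non-specific defined with 1 μM atropine.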

For test [3], the target named is T2, human muscarinic acetylcholine M3 receptor. Briefly: Muscarinic 3 receptor binding assay ([3H]NMS competition, SPA), pIC50. The settings on record: [3H]NMS 0.1 nM, CHO-K1 cell membranes expressing human M3 receptor. Put shortly: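 Competition of [3H]NMS (0.1 nM, quarter Kd) binding to CHO-K1 membranes expressing human M3, SPA format, in 20 mM HEPES pH 7.4, 5 mM MgCl2, 0.1% BSA, 1% DMSO. Incubated 16 h at room temperature; non-specific binding with 1 μM atropine; pIC50 from specific binding.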

In test [4] the target is T1, Adrenergic β2. Briefly: Adrenergic β2 mediated cAMP production in H292 cells (AlphaScreen), concentration response. It counts as cell-based. The settings on record: for EC50: 60 min, 300 μM rolipram, read-out: β2 pEC50 (converted); for β2 Intrinsic Activity: fraction relative to the maximum activity determined for formoterol. Put shortly: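 H292 cells seeded overnight, pretreated 10 min with rolipram (300 μM final), then exposed to compounds 60 min at room temperature in HBSS/10 mM HEPES pH 7.4/5 mM glucose, 1% DMSO. Lysate cAMP quantified by AlphaScreen against a standard curve; four-parameter fit gives pEC50 and intrinsic activity relative to formoterol maximum.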

T1 sequence (P07550 whole entry): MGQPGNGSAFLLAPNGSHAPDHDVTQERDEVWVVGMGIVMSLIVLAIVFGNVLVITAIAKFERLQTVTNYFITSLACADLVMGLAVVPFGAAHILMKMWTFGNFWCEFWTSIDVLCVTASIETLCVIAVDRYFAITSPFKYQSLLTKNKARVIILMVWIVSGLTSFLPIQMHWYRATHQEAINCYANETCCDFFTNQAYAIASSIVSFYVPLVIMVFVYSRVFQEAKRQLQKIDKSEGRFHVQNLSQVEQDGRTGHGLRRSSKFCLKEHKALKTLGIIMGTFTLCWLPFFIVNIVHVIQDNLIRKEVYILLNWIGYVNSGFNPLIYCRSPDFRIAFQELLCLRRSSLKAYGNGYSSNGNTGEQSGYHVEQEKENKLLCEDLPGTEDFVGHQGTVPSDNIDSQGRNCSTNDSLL
T2 sequence (P20309 whole entry): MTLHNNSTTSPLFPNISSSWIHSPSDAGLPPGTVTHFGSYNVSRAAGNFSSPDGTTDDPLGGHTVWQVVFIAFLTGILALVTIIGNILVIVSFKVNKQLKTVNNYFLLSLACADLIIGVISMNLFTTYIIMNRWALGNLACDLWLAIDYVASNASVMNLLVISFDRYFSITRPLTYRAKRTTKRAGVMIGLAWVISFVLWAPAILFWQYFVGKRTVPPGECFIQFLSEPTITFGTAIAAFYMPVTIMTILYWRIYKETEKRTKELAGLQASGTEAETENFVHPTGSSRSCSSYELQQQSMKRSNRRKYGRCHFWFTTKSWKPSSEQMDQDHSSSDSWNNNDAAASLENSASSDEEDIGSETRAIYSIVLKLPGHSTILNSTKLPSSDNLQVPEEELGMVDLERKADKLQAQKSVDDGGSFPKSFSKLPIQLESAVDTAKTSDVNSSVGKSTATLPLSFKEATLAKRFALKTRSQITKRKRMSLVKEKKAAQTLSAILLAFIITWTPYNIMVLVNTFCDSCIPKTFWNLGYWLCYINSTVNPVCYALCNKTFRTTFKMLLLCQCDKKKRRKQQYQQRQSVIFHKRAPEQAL

With `O=C1COc2c(CCNCCN(C(=O)CCOCCc3cccc(CN4CCC5(CC4)CN(C(=O)c4ccc(C(F)(F)F)cn4)CCO5)c3)C3CCCCC3)ccc(O)c2N1` [Example 149, N-Cyclohexyl-N-(2-(2-(5-hydroxy-3-oxo-3,4-dihydro-2H-benzo[b][1,4]oxazin-8-yl)ethylamino)ethyl)-3-(3-((4-(5-(trifluoromethyl)picolinoyl)-1-oxa-4,9-diazaspiro[5.5]undecan-9-yl)methyl)phenethoxy)propanamide], on Adrenergic β2 [1], the percent of formoterol maximum response at 1 µM was 90%. Further, the inhibition at 1 µM in test [2] amounted to 99%. This compound showed an IC50 in test [3] of 0.501 nM. Moreover, at Adrenergic β2 [4], the EC50 is 126 nM and the “β2 Intrinsic Activity” value came to 1.0.
On to `Cc1ccn2cc(C(=O)N3CCOC4(CCN(Cc5cccc(CCOCCC(=O)N(CCNCCc6ccc(O)c7c6OCC(=O)N7)C6CCCCC6)c5)CC4)C3)nc2c1` [Example 150, N-Cyclohexyl-N-(2-(2-(5-hydroxy-3-oxo-3,4-dihydro-2H-benzo[b][1,4]oxazin-8-yl)ethylamino)ethyl)-3-(3-((4-(7-methylimidazo[1,2-a]pyridine-2-carbonyl)-1-oxa-4,9-diazaspiro[5.5]undecan-9-yl)methyl)phenethoxy)propanamide], for which the percent of formoterol maximum response at 1 µM at Adrenergic β2 [1] amounted to 104%. Further, the inhibition at 1 µM in test [2] came out at 99%. In test [3], this compound had an IC50 of 3.16 nM. Also, at Adrenergic β2 [4], the EC50 is 79.4 nM and the “β2 Intrinsic Activity” value turned out to be 0.5.
With `Cc1ccc(C(=O)N2CCOC3(CCN(Cc4cccc(CCOCCC(=O)N(CCNCCc5ccc(O)c6c5OCC(=O)N6)C5CCCCC5)c4)CC3)C2)s1` [Example 154, N-Cyclohexyl-N-(2-(2-(5-hydroxy-3-oxo-3,4-dihydro-2H-benzo[b][1,4]oxazin-8-yl)ethylamino)ethyl)-3-(3-((4-(5-methylthiophene-2-carbonyl)-1-oxa-4,9-diazaspiro[5.5]undecan-9-yl)methyl)phenethoxy)propanamide], the percent of formoterol maximum response at 1 µM on Adrenergic β2 [1] was 101%. In addition, in test [2], the inhibition at 1 µM amounted to 101%. The compound further gave an IC50 in test [3] of 0.316 nM. In addition, on Adrenergic β2 [4], the EC50 was 100 nM and the “β2 Intrinsic Activity” value was 1.0.
In the case of `O=C1COc2c(CCNCCN(C(=O)CCOCCc3cccc(CN4CCC5(CC4)CN(C(=O)c4ccc6c(c4)OCO6)CCO5)c3)C3CCCCC3)ccc(O)c2N1` [Example 157, 3-(3-((4-(Benzo[d][1,3]dioxole-5-carbonyl)-1-oxa-4,9-diazaspiro[5.5]undecan-9-yl)methyl)phenethoxy)-N-cyclohexyl-N-(2-(2-(5-hydroxy-3-oxo-3,4-dihydro-2H-benzo[b][1,4]oxazin-8-yl)ethylamino)ethyl)propanamide], the percent of formoterol maximum response at 1 µM at Adrenergic β2 [1] is 97%. The inhibition at 1 µM in test [2] turned out to be 101%. For the same compound, in test [3], the 50% inhibitory concentration (IC50) is 1.58 nM. On Adrenergic β2 [4], the EC50 is 63.1 nM and the “β2 Intrinsic Activity” value amounted to 0.8.
Regarding `Cc1ccoc1C(=O)N1CCOC2(CCN(Cc3cccc(CCOCCC(=O)N(CCNCCc4ccc(O)c5c4OCC(=O)N5)C4CCCCC4)c3)CC2)C1` [Example 159, N-Cyclohexyl-N-(2-(2-(5-hydroxy-3-oxo-3,4-dihydro-2H-benzo[b][1,4]oxazin-8-yl)ethylamino)ethyl)-3-(3-((4-(3-methylfuran-2-carbonyl)-1-oxa-4,9-diazaspiro[5.5]undecan-9-yl)methyl)phenethoxy)propanamide], the percent of formoterol maximum response at 1 µM at Adrenergic β2 [1] worked out at 87%. In test [2], the inhibition at 1 µM is 100%. The concentration for half-maximal inhibition (IC50) in test [3] was 1.26 nM. In addition, on Adrenergic β2 [4], the EC50 is 79.4 nM and the “β2 Intrinsic Activity” value was 0.9.
`O=C1COc2c(CCNCCN(C(=O)CCOCCc3cccc(CN4CCC5(CC4)CN(C(=O)c4ccc6cccnc6n4)CCO5)c3)C3CCCCC3)ccc(O)c2N1` [Example 161, 3-(3-((4-(1,8-Naphthyridine-2-carbonyl)-1-oxa-4,9-diazaspiro[5.5]undecan-9-yl)methyl)phenethoxy)-N-cyclohexyl-N-(2-(2-(5-hydroxy-3-oxo-3,4-dihydro-2H-benzo[b][1,4]oxazin-8-yl)ethylamino)ethyl)propanamide]: the percent of formoterol maximum response at 1 µM at Adrenergic β2 [1] worked out at 97%. In addition, the inhibition at 1 µM in test [2] was 100%. The compound also gave an IC50 in test [3] of 0.501 nM. Moreover, at Adrenergic β2 [4], the EC50 is 39.8 nM and the “β2 Intrinsic Activity” value was 1.0.
For `O=C1COc2c(CCNCCN(C(=O)CCOCCc3cccc(CN4CCC5(CC4)CN(C(=O)c4cccc(Cl)c4)CCO5)c3)C3CCCCC3)ccc(O)c2N1` [Example 164, 3-(3-((4-(3-Chlorobenzoyl)-1-oxa-4,9-diazaspiro[5.5]undecan-9-yl)methyl)phenethoxy)-N-cyclohexyl-N-(2-(2-(5-hydroxy-3-oxo-3,4-dihydro-2H-benzo[b][1,4]oxazin-8-yl)ethylamino)ethyl)propanamide], the percent of formoterol maximum response at 1 µM at Adrenergic β2 [1] stood at 96%. In addition, the inhibition at 1 µM in test [2] was 99%. Moreover, the 50% inhibitory concentration (IC50) in test [3] was 2.51 nM. In addition, at Adrenergic β2 [4], the EC50 was 79.4 nM and the “β2 Intrinsic Activity” value is 0.8.
Regarding `O=C1COc2c(CCNCCN(C(=O)CCOCCc3cccc(CN4CCC5(CC4)CN(C(=O)CCOc4ccccc4)CCO5)c3)C3CCCCC3)ccc(O)c2N1` [Example 165, N-Cyclohexyl-N-(2-(2-(5-hydroxy-3-oxo-3,4-dihydro-2H-benzo[b][1,4]oxazin-8-yl)ethylamino)ethyl)-3-(3-((4-(3-phenoxypropanoyl)-1-oxa-4,9-diazaspiro[5.5]undecan-9-yl)methyl)phenethoxy)propanamide], the percent of formoterol maximum response at 1 µM at Adrenergic β2 [1] is 99%. In test [2], the inhibition at 1 µM amounted to 100%. This compound had an IC50 in test [3] of 1 nM. On Adrenergic β2 [4], the EC50 is 79.4 nM and the “β2 Intrinsic Activity” value is 1.1.
Consider `O=C1COc2c(CCNCCN(C(=O)CCOCCc3cccc(CN4CCC5(CC4)CN(C(=O)[C@@H]4C[C@H]4c4ccccc4)CCO5)c3)C3CCCCC3)ccc(O)c2N1` [Example 167, N-Cyclohexyl-N-(2-(2-(5-hydroxy-3-oxo-3,4-dihydro-2H-benzo[b][1,4]oxazin-8-yl)ethylamino)ethyl)-3-(3-((4-((1R,2R)-2-phenylcyclopropanecarbonyl)-1-oxa-4,9-diazaspiro[5.5]undecan-9-yl)methyl)phenethoxy)propanamide], for which the percent of formoterol maximum response at 1 µM on Adrenergic β2 [1] came out at 105%. Also, the inhibition at 1 µM in test [2] turned out to be 101%. In test [3], this compound had an IC50 of 0.316 nM. Moreover, at Adrenergic β2 [4], the EC50 is 100 nM and the “β2 Intrinsic Activity” value turned out to be 0.4.
`O=C1COc2c(CCNCCN(C(=O)CCOCCc3cccc(CN4CCC5(CC4)CN(C(=O)c4csc(CC(F)(F)F)n4)CCO5)c3)C3CCCCC3)ccc(O)c2N1` [Example 174, N-Cyclohexyl-N-(2-(2-(5-hydroxy-3-oxo-3,4-dihydro-2H-benzo[b][1,4]oxazin-8-yl)ethylamino)ethyl)-3-(3-((4-(2-(2,2,2-trifluoroethyl)thiazole-4-carbonyl)-1-oxa-4,9-diazaspiro[5.5]undecan-9-yl)methyl)phenethoxy)propanamide]: the percent of formoterol maximum response at 1 µM on Adrenergic β2 [1] was determined as 88%. Further, the inhibition at 1 µM in test [2] came to 100%. In test [3], this compound had a half-inhibitory concentration (IC50) of 0.251 nM. On Adrenergic β2 [4], the EC50 is 50.1 nM and the “β2 Intrinsic Activity” value is listed as 1.0.
On the same counts, the results for `CCCCc1nc(C(=O)N2CCOC3(CCN(Cc4cccc(CCOCCC(=O)N(CCNCCc5ccc(O)c6c5OCC(=O)N6)C5CCCCC5)c4)CC3)C2)cs1` [Example 175, 3-(3-((4-(2-Butylthiazole-4-carbonyl)-1-oxa-4,9-diazaspiro[5.5]undecan-9-yl)methyl)phenethoxy)-N-cyclohexyl-N-(2-(2-(5-hydroxy-3-oxo-3,4-dihydro-2H-benzo[b][1,4]oxazin-8-yl)ethylamino)ethyl)propanamide] are 86%, 100%, 0.316 nM, 63.1 nM and 1.0.
